Measured values taken from patent US8952024B2, “Herbicidal pyrimidone derivatives” (E I du Pont de Nemours and Company, priority 2009, dated 2015).
Read-outs that look alike come from different tables or passages of the source.

Key:
Type in all cases: in vivo
[1] = tested on: pigweed (Amaranthus retroflexus); assay: Test A pre-/postemergence plant response; conditions: Amaranthus retroflexus, 240 h, read-out: Plant response rating, Pigweed; for pest or weed control at 125 g/ha: 125 g ai/ha; for pest or weed control at 500 g/ha: 500 g ai/ha, approx. ten days
How it was run: (§1)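 Injury scores (0, no effect; 100, complete control) come from visual comparison with untreated controls roughly ten days post-treatment. Test chemicals in a surfactant-containing non-phytotoxic solvent were applied as a directed soil spray preemergence and to one- to two-leaf seedlings postemergence.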

[2] = tested on: velvetleaf (Abutilon theophrasti); assay: Test A pre-/postemergence plant response; conditions: Abutilon theophrasti, 240 h, read-out: Plant response rating, Velvetleaf; for pest or weed control at 125 g/ha: 125 g ai/ha; for pest or weed control at 500 g/ha: 500 g ai/ha, approx. ten days
How it was run: as §1

[3] = tested on: giant foxtail (Setaria faberii); assay: Test A pre-/postemergence plant response; conditions: Setaria faberi, 240 h, read-out: Plant response rating, Foxtail, Giant; for pest or weed control at 125 g/ha: 125 g ai/ha; for pest or weed control at 500 g/ha: 500 g ai/ha, approx. ten days
How it was run: as §1

[4] = tested on: large crabgrass (Digitaria sanguinalis); assay: Test A pre-/postemergence plant response; conditions: Digitaria sanguinalis, 240 h, read-out: Plant response rating, Crabgrass, Large; for pest or weed control at 125 g/ha: 125 g ai/ha; for pest or weed control at 500 g/ha: 500 g ai/ha, approx. ten days
How it was run: as §1

[5] = tested on: wheat (Triticum aestivum); assay: Test A pre-/postemergence plant response; conditions: Triticum aestivum, 240 h, read-out: Plant response rating, Wheat; for plant injury at 125 g/ha: 125 g ai/ha; for plant injury at 500 g/ha: 500 g ai/ha, approx. ten days
How it was run: as §1

corn (Zea mays) = assay: Test A pre-/postemergence plant response; conditions: Zea mays, 240 h; for Corn plant response rating (crop injury, 0 = no effect, 100 = complete kill) at 125 g/ha: 125 g ai/ha; for Corn plant response rating (crop injury, 0 = no effect, 100 = complete kill) at 500 g/ha: 500 g ai/ha, approx. ten days
How it was run: as §1

[6] = tested on: morningglory (Ipomoea spp.); assay: Test A pre-/postemergence plant response; conditions: Ipomoea, 240 h, read-out: Plant response rating, Morningglory; for pest or weed control at 125 g/ha: 125 g ai/ha; for pest or weed control at 500 g/ha: 500 g ai/ha, approx. ten days
How it was run: as §1

[7] = tested on: barnyardgrass (Echinochloa crus-galli); assay: Test A pre-/postemergence plant response; conditions: Echinochloa crus-galli, 240 h, read-out: Plant response rating, Barnyardgrass; for pest or weed control at 125 g/ha: 125 g ai/ha; for pest or weed control at 500 g/ha: 500 g ai/ha, approx. ten days
How it was run: as §1

soybean (Glycine max) = assay: Test B pre-/postemergence plant response
How it was run: (§2)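 Greenhouse herbicide screen. Pre- and postemergence (1- to 4-leaf) spray of compound in solvent/surfactant mixture; loam–sand soil for pre, peat/vermiculite medium for post. Visual control rating 0–100 at 13 to 15 days after treatment.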

[8] = tested on: wheat (Triticum aestivum); assay: Test B pre-/postemergence plant response; conditions: for plant injury at 31 g/ha: 31 g ai/ha; for plant injury at 125 g/ha: 125 g ai/ha
How it was run: as §2

[9] = tested on: morningglory (Ipomoea coccinea); assay: Test B pre-/postemergence plant response; conditions: for pest or weed control at 125 g/ha: 125 g ai/ha
How it was run: as §2

[10] = tested on: cocklebur (Xanthium strumarium); assay: Test B pre-/postemergence plant response; conditions: for pest or weed control at 31 g/ha: 31 g ai/ha; for pest or weed control at 125 g/ha: 125 g ai/ha
How it was run: as §2

[11] = post-emergence, Postemergence, 0 to 100 scale where 0 is no effect and 100 is complete control
[12] = post-emergence, Postemergence, 0 to 100 scale, 0 = no effect, 100 = complete control
[13] = pre-emergence, Preemergence, 0 to 100 scale, 0 = no effect, 100 = complete control
[14] = pre-emergence, Preemergence, visual injury, 0 to 100 scale (0 no effect, 100 complete control)
[15] = 62 g ai/ha, postemergence, 0 is no effect, 100 is complete control, 13 to 15 days
[16] = Preemergence, 250 g ai/ha, 0 to 100 scale

COCCCn1c(-c2ccccc2)ncc(C(=O)C2=C(O)CCCC2=O)c1=O [Compound 81, 5-[(2-hydroxy-6-oxo-cyclohexen-1-yl)carbonyl]-3-(3-methoxypropyl)-2-phenyl-4(3H)-pyrimidinone]
pest or weed control at 125 g/ha [1, 11]: 100% | pest or weed control at 500 g/ha [1, 12]: 100% | pest or weed control at 125 g/ha [1, 13]: 100% | pest or weed control at 500 g/ha [1, 14]: 100% | pest or weed control at 125 g/ha [2, 11]: 100% | pest or weed control at 500 g/ha [2, 12]: 100% | pest or weed control at 125 g/ha [2, 13]: 100% | pest or weed control at 500 g/ha [2, 14]: 100% | pest or weed control at 125 g/ha [3, 11]: 80% | pest or weed control at 500 g/ha [3, 12]: 90% | pest or weed control at 125 g/ha [3, 13]: 30% | pest or weed control at 500 g/ha [3, 14]: 80% | pest or weed control at 125 g/ha [4, 11]: 90% | pest or weed control at 500 g/ha [4, 12]: 90% | pest or weed control at 125 g/ha [4, 13]: 90% | pest or weed control at 500 g/ha [4, 14]: 100% | plant injury at 125 g/ha [5, 11]: 0% | plant injury at 500 g/ha [5, 12]: 30% | plant injury at 125 g/ha [5, 13]: 0% | plant injury at 500 g/ha [5, 14]: 20% | Corn plant response rating (crop injury, 0 = no effect, 100 = complete kill) at 125 g/ha (corn (Zea mays); [11]): 10% | Corn plant response rating (crop injury, 0 = no effect, 100 = complete kill) at 500 g/ha (corn (Zea mays); [12]): 70% | Corn plant response rating (crop injury, 0 = no effect, 100 = complete kill) at 125 g/ha (corn (Zea mays); [13]): 0% | Corn plant response rating (crop injury, 0 = no effect, 100 = complete kill) at 500 g/ha (corn (Zea mays); [14]): 0% | pest or weed control at 125 g/ha [6, 11]: 90% | pest or weed control at 500 g/ha [6, 12]: 100% | pest or weed control at 125 g/ha [6, 13]: 0% | pest or weed control at 500 g/ha [6, 14]: 70% | pest or weed control at 125 g/ha [7, 11]: 100% | pest or weed control at 500 g/ha [7, 12]: 100% | pest or weed control at 125 g/ha [7, 13]: 50% | pest or weed control at 500 g/ha [7, 14]: 90% | Soybean plant response rating (0 to 100 scale) (soybean (Glycine max); [15]): 95 | plant injury at 31 g/ha (soybean (Glycine max); Glycine max, post-emergence, 31 g ai/ha, postemergence, scale 0 to 100, 0 is no effect, 100 is complete control, read-out: Plant response rating, Soybean): 85% | plant injury at 125 g/ha (soybean (Glycine max); Glycine max, post-emergence, Postemergence, 125 g ai/ha, visual rating after 13 to 15 days, scale 0 (no effect) to 100 (complete control)): 95% | plant injury at 250 g/ha (soybean (Glycine max); Glycine max, post-emergence, Postemergence, 250 g ai/ha, scale 0 to 100 (0 no effect, 100 complete control), read-out: Plant response rating, Soybean): 98% | Wheat plant response rating (0 to 100 scale) [8, 15]: 20 | Wheat plant response rating [8, 16]: 0 | plant injury at 31 g/ha ([8]; Triticum aestivum, post-emergence, postemergence, scale 0 to 100, 0 is no effect, 100 is complete control, read-out: Plant response rating, Wheat): 5% | plant injury at 125 g/ha ([8]; Triticum aestivum, post-emergence, Postemergence, visual rating after 13 to 15 days, scale 0 (no effect) to 100 (complete control)): 25% | plant injury at 250 g/ha ([8]; Triticum aestivum, post-emergence, Postemergence, 250 g ai/ha, scale 0 to 100 (0 no effect, 100 complete control), read-out: Plant response rating, Wheat): 25% | plant injury at 31 g/ha ([8]; Triticum aestivum, pre-emergence, Preemergence, scale 0 to 100 (0 no effect, 100 complete control), read-out: Plant response rating, Wheat): 0% | plant injury at 62 g/ha ([8]; Triticum aestivum, pre-emergence, Preemergence, 62 g ai/ha, scale 0 to 100 (0 no effect, 100 complete control), read-out: Plant response rating, Wheat): 0% | plant injury at 125 g/ha ([8]; Triticum aestivum, pre-emergence, Preemergence, scale 0 to 100, 0 no effect, 100 complete control, read-out: Plant response rating, Wheat): 0% | Morningglory plant response rating (0 to 100 scale) [9, 15]: 90 | pest or weed control at 31 g/ha ([9]; Ipomoea, post-emergence, 31 g ai/ha, postemergence, scale 0 to 100, 0 is no effect, 100 is complete control, read-out: Plant response rating, Morningglory): 75% | pest or weed control at 125 g/ha ([9]; Ipomoea, post-emergence, Postemergence, visual rating after 13 to 15 days, scale 0 (no effect) to 100 (complete control)): 100% | pest or weed control at 250 g/ha ([9]; Ipomoea, post-emergence, Postemergence, 250 g ai/ha, scale 0 to 100 (0 no effect, 100 complete control), read-out: Plant response rating, Morningglory): 100% | pest or weed control at 62 g/ha ([9]; Ipomoea, pre-emergence, Preemergence, 62 g ai/ha, scale 0 to 100, 0 no effect, 100 complete control, read-out: Plant response rating, Morningglory): 65% | pest or weed control at 125 g/ha ([9]; Ipomoea, pre-emergence, Preemergence, scale 0 to 100, 0 no effect, 100 complete control, read-out: Plant response rating, Morningglory): 80% | Morningglory plant response rating [9, 16]: 95 | Cocklebur plant response rating (0 to 100 scale) [10, 15]: 55 | Cocklebur plant response rating [10, 16]: 85 | pest or weed control at 31 g/ha ([10]; Xanthium strumarium, post-emergence, postemergence, scale 0 to 100, 0 is no effect, 100 is complete control, read-out: Plant response rating, Cocklebur): 5% | pest or weed control at 125 g/ha ([10]; Xanthium strumarium, post-emergence, Postemergence, visual rating after 13 to 15 days, scale 0 (no effect) to 100 (complete control)): 65% | pest or weed control at 250 g/ha ([10]; Xanthium strumarium, post-emergence, Postemergence, 250 g ai/ha, scale 0 to 100 (0 no effect, 100 complete control), read-out: Plant response rating, Cocklebur): 90% | pest or weed control at 31 g/ha ([10]; Xanthium strumarium, pre-emergence, Preemergence, scale 0 to 100 (0 no effect, 100 complete control), read-out: Plant response rating, Cocklebur): 0% | pest or weed control at 62 g/ha ([10]; Xanthium strumarium, pre-emergence, Preemergence, 62 g ai/ha, scale 0 to 100, 0 no effect, 100 complete control, read-out: Plant response rating, Cocklebur): 10% | pest or weed control at 125 g/ha ([10]; Xanthium strumarium, pre-emergence, Preemergence, scale 0 to 100, 0 no effect, 100 complete control, read-out: Plant response rating, Cocklebur): 75%
